Measured values taken from the supplement of paper PMC4237247.

Tests used:
HeLa [1] = assay: mitotic arrest IC50 (G2/M DNA content, 20 h); higher = less potent
Procedure: (§1)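 HeLa cells were treated with a titration of each re-synthesised mitotic inhibitor. Mitotic arrest IC50 comes from a 20 h titration (190 pM to 10 uM) read as % G2/M by Vybrant DyeCycle Green cell cycle profiling on an Acumen cytometer. Cell viability IC50 comes from a 72 h titration (12.2 nM to 100 uM) read by CellTiter-Glo ATP luminescence, with curves fitted in CDD software. The maximal % of cells arrested in mitosis within the titration is also reported.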

HeLa [2] = assay: maximal percent of cells arrested in mitosis within titration; higher = stronger mitotic arrest; details: 20 h
Procedure: as §1

HeLa [3] = assay: cell viability IC50 (CellTiter-Glo, 72 h); higher = less potent
Procedure: as §1

| mitotic arrest IC50 (HeLa [1]) [nM] | cell viability IC50 (HeLa [3]) [nM] | Structure (SMILES) | maximal percent (HeLa [2]) [%] |
| --- | --- | --- | --- |
| 129 | 45.6 | COC(=O)Nc1nc2cc(C(=O)c3cccs3)ccc2[nH]1 [Nocodazole] | 68.5 |
| 202 | 222 | COC(=O)Nc1nc2cc(C(=O)c3ccccc3)ccc2[nH]1 [Mebendazole] | 76.6 |
| 279 | 389 | COC(=O)Nc1nc2cc(Sc3ccccc3)ccc2[nH]1 [Fenbendazole] | 62.5 |
| 88.5 | 121 | CC(=O)Nc1ccc(Nc2nc(-c3c(C)nc4ccccn34)cs2)cc1 | 65.3 |
| 37.1 | 27.3 | CC(=O)O[C@H]1C(=O)[C@@]2(C)[C@H]([C@H](OC(=O)c3ccccc3)[C@]3(O)C[C@H](OC(=O)[C@H](O)[C@@H](NC(=O)c4ccccc4)c4ccccc4)C(C)=C1C3(C)C)[C@]1(OC(C)=O)CO[C@@H]1C[C@@H]2O [Taxol] | 74 |
| 539 | 470 | COc1cc(-c2onc3ccc(Cl)cc23)cc(OC)c1OC | 54.8 |
| 1350 | 1160 | O=c1[nH]c(/C=C/c2ccccc2)nc2ccccc12 | 61 |
| 285 | 720 | O=c1[nH]c(/C=C/c2ccccc2F)nc2ccccc12 | 49.9 |
| 9120 | 12500 | O=C(CSc1nc2ccc([N+](=O)[O-])cc2s1)c1ccc(Cl)cc1 | 61.7 |
| 4780 | 6630 | CCN(CC)CCN1C(=O)C(=O)C(=C(O)c2ccccc2)C1c1ccccc1F (stereo not drawn) | 55.8 |
| 2650 | 2270 | O=C(O)c1ccccc1SC1CC(=O)N(c2ccc(Br)cc2)C1=O (stereo not drawn) | 70.4 |
